The source of these data is publication PMC3162996 (Journal of natural products, 2011).

Data set [1] concerns transcription factor AP-1. Put plainly: AP-1 assay. The settings on record: HEK293T AP-1 β-lactamase reporter; 1 h pre-incubation, then TPA, 18 h. In kind it is cell-based.
For data set [2] the following is noted: Floridian collections of Lyngbya confervoides; ref [6],[7]; cited from earlier work.

Entries after “also recorded” stand apart in the source; their conditions may differ.

As to Grassypeptolide F [compound 1], the “inhibitory activity against AP-1 (in words)” value in data set [1] is “moderately active; also recorded: moderate inhibitory activity”.
For grassypeptolide C [compound 5], the “cytotoxicity (in words)” value in data set [2] is “cytotoxic”.
As to Grassypeptolide G [compound 2], in data set [1], the “inhibitory activity against AP-1 (in words)” value is reported as “moderately active; also recorded: moderate inhibitory activity”.
